Assay results: patent EP0251194A1, “Use of carbocyclic and heterocyclic condensed dihydropyridines for the preparation of cardioprotective remedies and heterocyclic and carbocyclic condensed dihydropyridines and methods and intermediates for their preparation” (BOEHRINGER INGELHEIM KG, priority 1986, dated 1988)

What was measured:
Isoliertes Rattenherz = experiment: Isolated Langendorff heart, oxygen deficiency by reduced perfusion flow, time to onset of regular contractions; set-up: species or system Ratten; details: isolated rat heart; infusion of test substance during the O2 deficiency state (60 min, flow reduced 100-fold)
Description: Die Untersuchungen am isolierten Langendorff-Herzen wurden nach O. Langendorff, Pflügers Arch. 61, 291 (1895) mit kleinen Abwandlungen ausgeführt:
Isoliertes Rattenherz, retrograde Perfusion über die Aorta. Elektrische Stimulation (300 Impulse/min, Impulsdauer 1msec). Messung des linksventrikulär entwickelten Druckes mit flüssigkeitsgefülltem Latex-Ballon. Nach 20 min Aequilibrierung Auslösen eines Sauerstoff-Mangelzustandes mit 100-fach vermindertem Fluß durch Drosselung des Perfusionsflusses für 60 min, Rückkehr zu normalem Fluß bewirkt starken Anstieg der Grundspannung, unter Kontrollbedingungen setzt die Herztätigkeit nach 6 - 7 min unregelmäßig wieder ein, nach 15 - 18 min rascher Übergang zu regelmäßigen Kontraktionen. Cardioprotektiv wirksame Verbindungen verkürzen die Zeit bis zum Einsetzen regelmäßiger Kontraktionen. Infusion der Testsubstanz (gelöst in unbegastem Perfusionsmedium) während des O₂-Mangelzustandes herznah in das Perfusionssystem.
Die getesteten Verbindungen ergaben bei Anwendung in der unten angegebenen Konzentration eine signifikante Reduktion der Zeit bis zum Einsetzen regelmäßiger Kontraktionen.

[1] = test system: myocardiale Radio-Calciumaufnahme; experiment: Inhibition of isoprenaline-induced myocardial radio-calcium uptake in conscious rats (method of Arndts); assay type: in vivo, Ratten; details: peroral administration, dose that inhibits by 50 % the myocardial radio-calcium uptake caused by 30 mg/kg s.c. isoprenaline
Source text: Bekanntlich ist der myocardiale Ca⁺² -Gehalt ein Maß für die hypoxische bzw. die durch toxische Catecholamindosen hervorgerufene Herzschädigung (Higgins et al., Mol. Cell. Cardiol. 10: 427 - 438, 1984; Nakanishi et al., Am. J. Physiol. 242: 437 - 449, 1982; Fleckenstein, A., Vorträge der Erlanger Physiol. Tagung 1970, Ed. Keidel, Springer Verlag Berlin, Heidelberg, New York, 1971). Umgekehrt ist die Inhibition der hypoxischen oder Isoprenalin-bedingten mycardialen Calciumaufnahme ein Maß für die cardioprotektive Effektivität von Calciumantagonisten (Fleckenstein s.o.), von Calmodulininhibitoren (Higgins) und anderen Pharmaka, z.B. Betaadrenolytika (Arndts, Arzneimittelforschung 25: 1279 - 1284, 1975).
Die cardioprotektive Wirkung wurde an wachen Ratten nach subcutaner oder peroraler Wirkstoffgabe anhand der von Arndts (s.o.) beschriebenen Methode festgestellt, und die Wirkungsstärke der Testsubtanzen als H₅₀-Wert angegeben; dieser Wert entspricht der Dosis, die die durch eine Gabe von 30 (mg/kg; s.c.) Isoprenalin bedingte myocardiale Radio-Calciumaufnahme zu 50 % hemmt.

## CCCCNC(=O)C(C1=NCCc2cc(OC)c(OC)cc21)c1ccccc1 (stereo not drawn) [Verbindung B]
Isoliertes Rattenherz
  Konzentration (signifikante Reduktion der Zeit bis zum Einsetzen regelmäßiger Kontraktionen): 13,3 ug/ml
[1]
  H50-Wert: 0.50

## COc1cc2c(cc1OC)C(=C(C(=O)NCCN1CCOCC1)c1ccccc1)NCC2 [Verbindung A]
[1]
  H50-Wert: 0.73
